# Source: US20080249074A1, “Composition for the Transdermal Administration of Physiologically Active Agents” (LABORATORIOS BELMAC, S.A., priority 2005, published 2008)
# Tested on: carrageenan-induced rat paw plantar edema
# Assay: Anti-inflammatory effect of oleuropein compositions in the form of an oil
# Format: in vivo
# Details: for increase % vs. V0 / inhibition % vs. blank-vehicle / increase vs. V0 % / inhibition vs. blank-vehicle %: topical; for increase % vs. V0 / inhibition % vs. blank-vehicle: V1, 60 minutes; for increase vs. V0 % / inhibition vs. blank-vehicle %: V2, 180 minutes
# Experimental: The test was performed according to the method disclosed by Winter et al. (Proc. Soc. Exp. Biol. Med. 1962; vol. 111, pp. 544-547), adapted to the rat paw. The method consisted in the injection of 100 μl of a 0.75% carrageenan solution in physiological saline in the plantar face of the left hind paw of the rat. The volume of the paws was determined by a plethysmometer just before the injection of the carrageenan (V0), 60 minutes after the injection (V1) and 180 minutes (V2) after the injection.
# The tested substances were administered topically according to a modification of the method disclosed by Mass6 et al. (Rev. Farmacol. Clin. Exp. 1990, vol. 7, p. 85), following a blind and randomized trial. 100 μl of the substance to be tested were applied over the paw of the animal, spread over the whole surface of the paw, massaging until the complete absorption. The application was repeated 2 times, namely 18 h before the injection of carrageenan and 60 minutes before said injection. Simultaneously to the application, 30 ml/kg of distilled water were administered orally.
# Using the method described in Example 7, the anti-inflammatory effect of the four compositions in the form of an oil prepared according to Example 1, which comprised a 0.1%, 0.2%, 0.4%, and 0.8% of oleuropein w/w, respectively, was studied. The blank-vehicle was prepared by the same method as the compositions tested excluding the active ingredient.
# The mean±S.E.M. of the volumes of the animal paws was calculated for the three observation periods V0, V1 and V2. The average values of every experimental group were used for the determination of the average increase of the volume of the paws as an effect of the injection of carrageenan during the periods of observation V1 and V2 with regard to the initial volume (V0), and, then, the percentages of the variation of said values with regard to the blank-vehicle group were determined. Finally, the 50% Effective Concentration (EC 50) was calculated through a linear regression optimized by the least squares method. The evaluation of the statistic signification of the variation was performed by the Student's t-test for independent data using a p<0.05 level to establish the difference criteria. […] However, as estimation, it is obtained that EC 50 of the oleuropein composition in the form of an oil is about 0.7%.
compound,measurement,setting,value
"C/C=C1/[C@H](O[C@@H]2O[C@H](CO)[C@@H](O)[C@H](O)[C@H]2O)OC=C(C(=O)OC)[C@H]1CC(=O)OCCc1ccc(O)c(O)c1 [Oleuropein, oleuropein]",increase % vs. V0,0.1% (w/w) oleuropein oil,27.39%
same,inhibition % vs. blank-vehicle,0.1% (w/w) oleuropein oil,14.62%
same,increase vs. V0 %,0.1% (w/w) oleuropein oil,43.59%
same,inhibition vs. blank-vehicle %,0.1% (w/w) oleuropein oil,12.38%
same,increase % vs. V0,0.2% (w/w) oleuropein oil,24.75%
same,inhibition % vs. blank-vehicle,0.2% (w/w) oleuropein oil,22.86%
same,increase vs. V0 %,0.2% (w/w) oleuropein oil,36.80%
same,inhibition vs. blank-vehicle %,0.2% (w/w) oleuropein oil,26.03%
same,increase % vs. V0,0.4% (w/w) oleuropein oil,18.55%
same,inhibition % vs. blank-vehicle,0.4% (w/w) oleuropein oil,42.19%
same,increase vs. V0 %,0.4% (w/w) oleuropein oil,26.80%
same,inhibition vs. blank-vehicle %,0.4% (w/w) oleuropein oil,46.13%
same,increase % vs. V0,0.8% (w/w) oleuropein oil,16.13%
same,inhibition % vs. blank-vehicle,0.8% (w/w) oleuropein oil,49.73%
same,increase vs. V0 %,0.8% (w/w) oleuropein oil,25.71%
same,inhibition vs. blank-vehicle %,0.8% (w/w) oleuropein oil,48.31%
same,"maximum estimated effect, inhibition",oily composition of oleuropein,about 50%
same,concentration up to which the effect is lineal,oleuropein concentration in the oil composition,about 0.4%
same,50% Effective Concentration (EC 50),"oleuropein concentration in the oil composition, linear regression by least squares, estimation",about 0.7%
